Assay results taken from patent US7504537B2, “Hydroxamic acid derivative and MMP inhibitor containing the same as active ingredient” (Dainippon Sumitomo Pharma Co., Ltd., priority 2001, dated 2009).

What was measured:
Type in all cases: biochemical
[1] = target: T1, MMP-3 (Homo sapiens, UniProt P08254); experiment: Test 1 Test on MMP-3 inhibiting activity (fluorogenic peptide substrate); conditions: activated MMP-3, 37° C.; read-out: MMP-3 inhibition activity value
T1 construct: C-terminal truncated cDNA in which the cDNA encodes human prostromelysin; made in house; host or cells: E. coli
T1 sequence (P08254 100-272 limits assumed): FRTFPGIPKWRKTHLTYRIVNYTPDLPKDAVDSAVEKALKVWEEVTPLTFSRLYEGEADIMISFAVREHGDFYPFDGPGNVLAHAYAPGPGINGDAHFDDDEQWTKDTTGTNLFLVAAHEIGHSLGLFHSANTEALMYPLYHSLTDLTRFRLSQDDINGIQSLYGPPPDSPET
Experimental: Test 1 Test on MMP-3 Inhibiting Activity
C-terminal truncated cDNA in which the cDNA encodes human prostromelysin, was subcloned (proMMP-3, cDNA sequence in Nature, 348, 699-704 (1990)), was expressed in E. coli and then, the expressed protein was purified in accordance with the method described in Biochemistry 30, 6476-6483 (1991). proMMP-3 activation was carried out by treating with 1 mM 4-aminophenyl mercuric acetate for 60 minutes at 37° C.
Enzyme activity test was conducted by the method of C. G. Knight (FEBS Lett., 296(3), 263-266 (1992)).
A mixture of activated MMP-3 (20 nM, 10 μl), buffer solution (70 μl, pH 7.5 solution containing 100 mM Tris-HCl solution, 10 mM calcium chloride solution, 100 mM sodium chloride solution and 0.05% Brij-35 solution), MOCAc-Pro-Leu-Gly-Leu-A2pr(DNP)-Ala-Arg-NH2 in 0.1% DMSO solution (100 μM, 10 μl) and a test compound in DMSO solution was incubated for 1.5 hours at 37° C. The mixture was put on a 96 well-plate (100 μl/well) and the plate was cultured at 37° C. The enzyme activity in the presence of the compound was measured based on fluorescence intensity (λex 320 nm, λem 405 nm), and IC50 was calculated.

[2] = target: T2, MMP-2 (Homo sapiens, UniProt P08253); experiment: Test 3 MMP-2 inhibition activity test (gelatinase activity assay kit); conditions: activated human MMP-2, biotin labeled gelatin
T2 construct: purchased Boeringer Manheim (Roche Diagnostics)
T2 sequence (P08253 110-660): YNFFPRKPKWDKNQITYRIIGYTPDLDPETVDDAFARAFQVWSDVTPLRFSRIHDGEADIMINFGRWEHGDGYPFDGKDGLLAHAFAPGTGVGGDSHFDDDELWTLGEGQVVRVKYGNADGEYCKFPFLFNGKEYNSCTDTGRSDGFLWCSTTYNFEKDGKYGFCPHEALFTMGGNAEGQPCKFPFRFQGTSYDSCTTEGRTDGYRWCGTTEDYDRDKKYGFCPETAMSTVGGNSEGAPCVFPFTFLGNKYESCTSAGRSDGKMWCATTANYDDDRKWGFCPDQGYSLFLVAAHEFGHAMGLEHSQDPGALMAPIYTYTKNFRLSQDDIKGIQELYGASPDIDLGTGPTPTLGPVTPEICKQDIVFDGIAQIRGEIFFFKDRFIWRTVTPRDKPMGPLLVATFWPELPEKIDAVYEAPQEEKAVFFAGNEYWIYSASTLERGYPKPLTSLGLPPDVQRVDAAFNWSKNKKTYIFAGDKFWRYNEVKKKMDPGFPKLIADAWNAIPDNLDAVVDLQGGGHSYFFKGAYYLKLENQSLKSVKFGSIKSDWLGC
Experimental: TTC buffer solution was attached to a MMP-2 enzyme assay kit, and the solution was made of 50 mM tris, 1 mM calcium chloride solution and 0.05% Triton X-100 solution, and was adjusted to pH 7.5.
Test 3 MMP-2 Inhibition Activity Test
MMP-2 enzyme assay kit (Gelatinase Activity Assay, Roche.Diagonistics) was used.
A mixture of 1.2U human MMP-2 (20 μl, Boeringer Manheim 30U freezed dry product), TTC buffer (980 μl) and 2.5 mM 4-aminophenyl mercuric acetate solution (144 μl) was incubated at 37° C. for 30 minutes and then it was preserved under ice cooling until use.
A mixture of DMSO solution (2 μl) containing a definite concentration of the compound, biotin labeled gelatin (188 μl) and activated MMP-2 solution (10 μl) was put on a 96 well-assay plate (protein nonabsorbance type), well agitated and incubated at 37° C. for 1 hour. This solution was transferred to a Streptavidin-coating plate and agitated at 15° C, to 30° C. for 30 minutes. And then the solution was washed with TTC buffer solution (200 μl) three times. Thereto was added Streptavidin-POD (200 μl) and the mixture was agitated at 15° C. to 25° C. for 60 minutes, followed by washing with TTC buffer (200 μl) three times. Then, ABTS solution (200 μl) was added thereto and after standing at room temperature for 40 minutes, furuorescence intensity was measure at 405 nm and IC50 was calculated.
In case of the above test, a control and a blank were prepared when the well was prepared as mentioned below. DMSO (2 μl) was used as a control instead of a sample solution. In the case of a blank, DMSO (2 μl) instead of the sample solution and the solution (10 μl) prepared in the same manner as preparation of activated MMP-2 solution but without adding 1.2U human MMP-2, instead of activated MMP-2 solution (10 μl), were used.

[3] = target: MMP-9 (Homo sapiens, UniProt P14780); experiment: Test 4 MMP-9 inhibiting activity test (biotin labeled gelatin); conditions: activated human MMP-9, biotin labeled gelatin; read-out: MMP-9 inhibition activity value
Sequence of MMP-9 (P14780 107-707 limits assumed): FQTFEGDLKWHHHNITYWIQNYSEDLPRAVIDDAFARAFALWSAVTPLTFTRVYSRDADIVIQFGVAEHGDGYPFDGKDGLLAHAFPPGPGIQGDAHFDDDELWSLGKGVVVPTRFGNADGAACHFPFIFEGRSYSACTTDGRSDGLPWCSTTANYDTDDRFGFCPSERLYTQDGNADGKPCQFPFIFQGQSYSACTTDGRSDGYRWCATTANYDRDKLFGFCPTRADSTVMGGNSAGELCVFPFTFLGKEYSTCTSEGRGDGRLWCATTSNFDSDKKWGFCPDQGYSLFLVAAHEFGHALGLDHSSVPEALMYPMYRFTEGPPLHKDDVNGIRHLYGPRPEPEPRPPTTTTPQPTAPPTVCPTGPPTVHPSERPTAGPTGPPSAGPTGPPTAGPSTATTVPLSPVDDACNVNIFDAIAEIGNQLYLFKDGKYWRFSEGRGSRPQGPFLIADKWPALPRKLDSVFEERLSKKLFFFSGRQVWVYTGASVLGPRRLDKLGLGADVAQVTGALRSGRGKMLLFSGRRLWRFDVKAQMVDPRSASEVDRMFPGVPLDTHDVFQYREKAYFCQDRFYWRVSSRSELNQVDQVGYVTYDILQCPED
Experimental: Test 4 MMP-9 Inhibiting Activity Test
A mixture of buffer solution (190 μl; pH 7.5 solution containing 50 mM Tris-HCl solution, 0.5 m sodium chloride solution and 5 mM calcium chloride solution), human MMP-9 (10 μl) and trypsin solution (20 μl; trypsin 3 mg in activated buffer (5 ml)) was incubated at 37° C. for 10 minutes. Thereto was added aprotinine solution (20 μl; aprotinine (3 mg) in buffer (5 ml)) and the mixture was incubated at 37° C. for 10 minutes, followed by addition of buffer (2 ml). The mixture was preserved under cooling with ice until use.
A mixture of DMSO solution (2 μl) containing definite concentration of the compound, biotin labeled gelatin (188 μl) and activated MMP-9 solution (10 μl) was put on a 96 well-assay plate (protein nonabsorbance type), well agitated, and incubated at 37° C. for 1 hour. This solution was transferred to Streptavidin-coating plate, and agitated at 15° C. to 30° C. for 30 minutes. And then the solution was washed with TTC buffer solution (200 μl) three times. Thereto was added Streptavidin-POD (200 μl) and the mixture was agitated at 15° C. to 25° C. for 60 minutes, followed by washing with TTC buffer (200 μl) three times. Then, ABTS solution (200 μl) was added thereto and after standing at room temperature for 40 minutes, furuorescence intensity was measured at 405 nm and IC50 was calculated.
In case of the above test, DMSO (2 μl) was used as a control instead of a sample solution. In the case of a blank, DMSO (2 μl) instead of the sample solution and the solution (10 μl) prepared in the same manner as preparation of […] but without adding 1.2 Uhuman MMP-9, instead of activated MMP-9 solution (10 μl), were used.

Row | Structure (SMILES) | IC50 [1] | IC50 [2] | IC50 [3]
1 | CC(C)CN(C1(C(=O)NO)CCCC1)S(=O)(=O)c1ccc(Oc2ccc(S(C)(=O)=O)cc2)cc1 [Example 2, N-hydroxy 1-[isobutyl({4-[4-(methylsulfonyl)phenoxy]phenyl}sulfonyl)amino]cyclopentanecarboxamide] | 21.2 nM | < 100 nM | 300 nM
2 | CS(=O)(=O)c1ccc(Oc2ccc(S(=O)(=O)N(CCC(=O)O)C3(C(=O)NO)CCCC3)cc2)cc1 [Example 27, N-{1-[(Hydroxyamino)carbonyl]cyclopentyl}-N-({4-[4-(methylsulfonyl)phenoxy]phenyl}sulfonyl)-β-alanine] | 89.4 nM | > 10000 nM | > 10000 nM
3 | CCOC(=O)CN(C1(C(=O)NO)CCC1)S(=O)(=O)c1ccc(Oc2ccc(S(C)(=O)=O)cc2)cc1 [Example 46, Ethyl N-{1-[(hydroxyamino)carbonyl]cyclobutyl}-N-({4-[4-(methylsulfonyl)phenoxy]phenyl}sulfonyl)glycinate] | 11.6 nM | > 100 nM | > 100 nM
4 | CC(C)(C(=O)NO)N(Cc1ccccc1)S(=O)(=O)c1ccc(Oc2ccc(S(C)(=O)=O)cc2)cc1 [Example 10, N′^2′-Benzyl-N′^1′-hydroxy-2-methyl-N′^2′-({4-[4-(methylsulfonyl)phenoxy]phenyl}sulfonyl)alaninamide] | 85.8 nM | 2400 nM | 6800 nM
5 | CS(=O)(=O)c1ccc(Oc2ccc(S(=O)(=O)NCC(=O)NO)cc2)cc1 [Example 13, N′^1′-Hydroxy-N′^2′-({4-[4-(methylsulfonyl)phenoxy]phenyl}sulfonyl)glycinamide] | 13.5 nM | 900 nM | 4700 nM
6 | CS(=O)(=O)c1ccc(Oc2ccc(S(=O)(=O)NC3(C(=O)NO)CCC3)cc2)cc1 [Example 48, N-Hydroxy-1-[({4-[4-(methylsulfonyl)phenoxy]phenyl}sulfonyl)amino]cyclobutanecarboxamide] | 35.9 nM | > 100 nM | > 100 nM
7 | CCOC(=O)CCN(C1(C(=O)NO)CCCC1)S(=O)(=O)c1ccc(Oc2ccc(S(C)(=O)=O)cc2)cc1 [Example 26, Ethyl N-{1-[(hydroxyamino)carbonyl]cyclopentyl}-N-({4-[4-(methylsulfonyl)phenoxy]phenyl}sulfonyl)-β-alaninate] | 14.3 nM | 300 nM | > 100 nM
8 | CS(=O)(=O)c1ccc(Oc2ccc(S(=O)(=O)N(CCC(=O)O)CC(=O)NO)cc2)cc1 [Example 36, N-[2-(Hydroxyamino)-2-oxoethyl]-N-({4-[4-(methylsulfonyl)phenoxy]phenyl}sulfonyl)-β-alanine] | 37.1 nM | 2900 nM | > 100 nM
9 | CS(=O)(=O)c1ccc(Oc2ccc(S(=O)(=O)N(CC(=O)O)CC(=O)NO)cc2)cc1 [Example 24, N-{[(Hydroxyamino)carbonyl]methyl}-N-({4-[4-(methylsulfonyl)phenoxy]phenyl}sulfonyl)-glycine] | 128 nM | > 10000 nM | > 10000 nM
10 | CCOC(=O)CN(C1(C(=O)NO)CCCC1)S(=O)(=O)c1ccc(Oc2ccc(S(C)(=O)=O)cc2)cc1 [Example 23, Ethyl N-{1-[(hydroxyamino)carbonyl]cyclopentyl}-N-({4-[4-(methylsulfonyl)phenoxy]phenyl}sulfonyl)glycinate] | 21.6 nM | 2100 nM | 2300 nM
11 | COCCCN(CC(=O)NO)S(=O)(=O)c1ccc(Oc2ccc(S(C)(=O)=O)cc2)cc1 [Example 43, N^1-Hydroxy-N^2-(3-methoxypropyl)-N^2-({4-[4-(methylsulfonyl)phenoxy]phenyl}sulfonyl)glycinamide] | 8.5 nM | 1500 nM | 600 nM
12 | CC(C)OCCN(CC(=O)NO)S(=O)(=O)c1ccc(Oc2ccc(S(C)(=O)=O)cc2)cc1 [Example 3, N^1-hydroxy-N^2-(2-isopropoxyethyl)-N^2-({4-[4-(methylsulfonyl)phenoxy]phenyl}sulfonyl)glycinamide] | 4.8 nM | > 100 nM | 1000 nM
13 | COCCN(CC(=O)NO)S(=O)(=O)c1ccc(Oc2ccc(S(C)(=O)=O)cc2)cc1 [Example 44, N^1-Hydroxy-N^2-(2-methoxyethyl)-N^2-({4-[4-(methylsulfonyl)phenoxy]phenyl}sulfonyl)glycinamide] | 2.7 nM | > 100 nM | > 10000 nM
14 | CS(=O)(=O)c1ccc(Oc2ccc(S(=O)(=O)N(CC(=O)NO)Cc3ccncc3)cc2)cc1 [Example 42, N′^1′-Hydroxy-N′^2′-({4-[4-(methylsulfonyl)phenoxy]phenyl}sulfonyl)-N′^2′-(4-pyridinylmethyl)glycinamide] | 67.5 nM | < 100 nM | 4300 nM
15 | COc1ccc(Oc2ccc(CC3Sc4ccc(C(=O)O)cc4N(CC(=O)NO)C3=O)cc2)cc1 (centres unmarked) [compound 1, reference compound] | 88 nM | > 100 nM | > 100 nM
16 | CC(C)CN(C1(C(=O)NO)CCC1)S(=O)(=O)c1ccc(Oc2ccc(S(C)(=O)=O)cc2)cc1 [Example 18, N-Hydroxy-1-[isobutyl({4-[4-(methylsulfonyl)phenoxy]phenyl}sulfonyl)amino]cyclobutanecarboxamide] | 29.9 nM | – | 500 nM
17 | CC(C)CN(C1(C(=O)NO)CCOCC1)S(=O)(=O)c1ccc(Oc2ccc(S(C)(=O)=O)cc2)cc1 [Example 15, N-Hydroxy-4-[isobutyl({4-[4-(methylsulfonyl)phenoxy]phenyl}sulfonyl)amino]tetrahydro-2H-pyrane-4-carboxamide] | 5.2 nM | 300 nM | 700 nM
